Reference: PubChem BioAssay AID1996
Converted amounts (≈) assume the structure as drawn.

conditions: buffer; pH 7.4; 200.0 µM

| SMILES | solubility kinetic [µg/mL] |
| --- | --- |
| O=C1/C(=C\c2ccco2)SC(=S)N1C1CCS(=O)(=O)C1 (stereo not drawn) | 6.6 (≈ 20 µM) |
| N#Cc1nc(-c2ccccc2)oc1N1CCC(C(N)=O)CC1 | 39.7 (≈ 134 µM) |
| CC(C)N1CCN(C(=O)c2ccc([N+](=O)[O-])cc2)CC1 | 27.3 (≈ 98.4 µM) |
| Cc1cccc(C)c1N1C(=O)CC(N2CCSCC2)C1=O (stereo not drawn) | > 45.7 |
| CC(=O)Nc1ccc(NC=C(C#N)C#N)cc1 | 4.2 (≈ 18.6 µM) |
| COc1ccccc1NC(=O)COc1cccnc1[N+](=O)[O-] | 4.3 (≈ 14.2 µM) |
| CCC(C)C(=O)Nc1ccc(S(=O)(=O)Nc2nccs2)cc1 (stereo not drawn) | > 50.9 |
| COc1cccc(OC)c1C(=O)Nc1ccc(N2CCCC2)cc1 | 46.9 (≈ 144 µM) |
| CCOc1ccc(NC(=S)N2c3ccccc3CC2C)cc1 (stereo not drawn) | 4.4 (≈ 14.1 µM) |
| N/C(=N\OC(=O)CC1CCCCC1)c1cccc(Br)c1 | 0.6 (≈ 1.77 µM) |
| COc1ccc(Cl)cc1C(=O)NCCCSc1ccccc1 | 7.8 (≈ 23.2 µM) |
| COc1ccc(OC(=O)NCCc2ccccc2)cc1 | 24.3 (≈ 89.6 µM) |
| Cc1cc2nc(-c3ccc[nH]c3=O)n(Cc3cccc(F)c3)c2cc1C | 1.3 (≈ 3.74 µM) |
| COCCN(C(=O)c1ccco1)c1nc(-c2ccccc2)cs1 | 5.7 (≈ 17.4 µM) |
| Cc1ccc2[nH]c(C)c(CCNC(=O)NC3CCCCC3)c2c1 | 1 (≈ 3.19 µM) |
| COc1ccc(CNc2cc(NCCCO)c([N+](=O)[O-])c3nonc23)cc1 | 45.7 (≈ 122 µM) |
| Cc1ccc(C2C(C(=O)c3ccco3)=C(O)C(=O)N2c2ncccn2)cc1 (stereo not drawn) | > 54.2 |
| Cc1ccccc1C(=O)c1cccn1CC(=O)NCc1ccccc1 | 12.7 (≈ 38.2 µM) |
| CC1CCCCC1NC(=O)Cn1cnc2c1c(=O)n(C)c(=O)n2C (stereo not drawn) | > 50 |
| Cc1snc(SCc2ccc(Cl)cc2)c1C#N | < 0.3 |
| S=C(NCc1ccco1)NCC1CCCO1 (stereo not drawn) | 34.8 (≈ 145 µM) |
| CCOc1ccccc1C(=O)Nc1ccc2c(c1)C(=O)NC2=O | < 0.3 |
| COC(=O)c1nc2ccc(N3CCOCC3)cc2c(C)c1C(=O)OC | > 51.7 |
| CC(C)c1cc(CN2CCOCC2)cc(C(C)C)c1O | > 41.6 |

| SMILES | solubility kinetic [µg/mL] |
| --- | --- |
| Cc1ccc2nsnc2c1NC(=O)c1cncc(Br)c1 | 16.3 (≈ 46.7 µM) |
| CC1(N(O)/C=C2\C=CC=CC2=O)CCCCC1=O (stereo not drawn) | > 37.1 |
| CCN1CCN(c2oc(-c3ccco3)nc2C#N)CC1 | 35.9 (≈ 132 µM) |
| CC(C)N(Cc1ccccc1)C(=O)CN1c2cccc3cccc(c23)S1(=O)=O | 11 (≈ 27.9 µM) |
| COC(=O)CC1C(=O)NCCN1C(=O)c1sc2ccccc2c1Cl (stereo not drawn) | > 55 |
| COC(=O)c1cc(S(=O)(=O)N(C)C2CCCCC2)c[nH]1 | > 45.1 |
| COc1cccc(CNCCO)c1OCc1ccc(Cl)cc1.Cl | > 53.7 |
| CCN(CC(=O)NC(=O)NCc1ccccc1)Cc1ccccc1 | 40.9 (≈ 126 µM) |
| C[n+]1ccn(CC(=O)c2cccs2)c1.[Br-] | 39 |
| COc1ccc(Cn2c(C(C)C)nc3sc4ccccc4c(=O)c3c2=O)cc1 | < 0.4 |
| O=C(C1=C(O)C(=O)N(CC2CCCO2)C1c1ccccc1)c1ccco1 (stereo not drawn) | 41.8 (≈ 118 µM) |
| CC1SC(C)C(=O)N(CC(=O)Nc2ccc([N+](=O)[O-])cc2)C1=O (stereo not drawn) | 45.7 (≈ 135 µM) |
| COc1ccc2nc(C)cc(SCC(=O)N3CCCCC3)c2c1 | > 49.6 |
| OCCN1CCN(c2cc(C(F)(F)F)nc3ccccc23)CC1 | > 48.8 |
| COc1ccc(OC)c(CNS(=O)(=O)c2cn(C)cn2)c1 | 46.5 (≈ 149 µM) |
| CN(C(=O)NC1CCCCC1)c1ccccc1 | > 34.8 |
| COc1ccc(CC(=O)NCc2ccccc2)cc1 | 22.6 (≈ 88.5 µM) |
| C=CCNC(=O)N1CCC(c2nc3ccccc3s2)CC1 | > 45.2 |
| N#CCSc1nc2ccccc2c(=O)n1CCCC(=O)NCc1ccco1 | 2.5 (≈ 6.54 µM) |
| O=C1C2C3CCC(O3)C2C(=O)N1c1cccc(O)c1 (stereo not drawn) | > 38.9 |
| COc1ccc(C(=O)N2CC3(C)C4CCC3(C)C2(C#N)C4)cc1OC (stereo not drawn) | 45 (≈ 132 µM) |
| Cc1cccc(C(=O)Nc2ccc(C(=O)c3ccccc3)cc2)c1 | < 0.7 |
| O=C(c1ccc(-n2cccc2)cc1)N1CCCCC1 | > 38.1 |
| N#CC1C=Cc2ccccc2N1C(=O)c1ccccc1 (stereo not drawn) | 10.3 (≈ 39.6 µM) |
